From US7897401B2, “Control of apoptosis by controlling the propensity of ceramide channel formation” (University of Maryland, College Park, priority 2005, dated 2011)

Columns and labels:
erythrocytes = assay: Permeabilization of erythrocytes (osmolytes of varying molecular weight); assay type: cell-based
[1] = test system: ceramide channels in the MOM of rat liver mitochondria; assay: Complex IV accessibility assay (cytochrome c oxidation), isolated rat liver mitochondria; assay type: biochemical; conditions: radiolabeled ceramide, rat liver mitochondria, FIG. 12
Text: The amount of ceramide that needs to be added to mitochondria to achieve permeabilization of the MOM to proteins is high compared to physiological levels. However, it is not the absolute ceramide concentration in solution that is important, but rather the concentration of ceramide in the membrane. In addition, only a small percentage of the ceramide added to the solution actually inserts into the membrane. This issue was directly addressed by using radiolabeled ceramide and simultaneously measuring how much ceramide inserts into rat liver mitochondria and how much permeabilization is achieved in the MOM by measuring the accessibility of exogenously added cytochrome c. […] Levels measured in mitochondria in the early stages of apoptosis are 4 pmoles per nmole. Thus, the results are well within the physiological range. Note that after correcting for the membrane partitioning, long and short-chain ceramide have equal potency as expected from the model of the ceramide channel.
The ability of the naturally-occurring C16-ceramide to form channels in the mitochondrial outer membranes of isolated yeast mitochondria was assessed via the complex IV accessibility assay. This assay measures the bidirectional flux of cytochrome c across the mitochondrial outer membrane (MOM) by monitoring its oxidation by complex IV of the mitochondrial inner membrane electron transport chain. The initial rate of cytochrome c oxidation when expressed as a percent of the rate measured in mitochondria with damaged outer membranes is a good measure of the permeability of the MOM to proapoptotic proteins. This method has an advantage over simply looking for the release of cytochrome c because both channel prevention and reversal by a potential inhibitor can be evaluated.
Thus, mitochondria are isolated from wild type yeast and yeast strains expressing either human Bcl-2 or Bcl-xL according to previously published methods (Lee, A. et al. (1998) “THE ROLE OF YEAST VDAC GENES ON THE PERMEABILITY OF THE MITOCHONDRIAL OUTER MEMBRANE,” J. Membr. Biol. 161:173-181). Isolated yeast mitochondria are incubated with the naturally occurring C16-ceramide and its ability to form channels is evaluated according to the complex IV accessibility assay (Siskind, L. J. et al. (2002) “CERAMIDE CHANNELS INCREASE THE PERMEABILITY OF THE MITOCHONDRIAL OUTER MEMBRANE To SMALL PROTEINS,” J. Biol. Chem. 277:26796-26803). This assay measures the CN-sensitive oxidation of exogenously-added reduced cytochrome c by cytochrome c oxidase of the inner membrane. […] Mitochondria are incubated with test agents (e.g., C16-ceramide) for a predetermined period of time (e.g., 5-20 minutes), reduced cytochrome c is added and the absorbance is monitored at 550 nm. […]

ceramide channels = assay: Screening for influence on ceramide channel formation in liposomes or planar membranes; assay type: biochemical
Text: In one embodiment, such methods comprise screening compounds for their ability to influence the formation of ceramide channels in liposomes or planar membranes. […] Such liposomes or planar membranes can be produced using any of a variety of lipids. Preferably, however, the constituents of the liposomes or planar membranes will be selected to mimic those of the MOM, or to have relevance to such membranes (see, Weissig, V. et al. (2006) “LIPOSOMES AND LIPOSOME-LIKE VESICLES FOR DRUG AND DNA DELIVERY TO MITOCHONDRIA,” J. Liposome Res. 16(3):249-264; Torchilin, V. P. (2006) “RECENT APPROACHES TO INTRACELLULAR DELIVERY OF DRUGS AND DNA AND ORGANELLE TARGETING,” Annu. Rev. Biomed. Eng. 8:343-375; Elrick, M. J. et al. (2006) “SPHINGOSINE, A PRODUCT OF CERAMIDE HYDROLYSIS, INFLUENCES THE FORMATION OF CERAMIDE CHANNELS,” Biophys. J. 1; 91(5):1749-1756; Bathori, G. et al. (2006) “CA2+-DEPENDENT CONTROL OF THE PERMEABILITY PROPERTIES OF THE MITOCHONDRIAL OUTER MEMBRANE AND VOLTAGE-DEPENDENT ANION-SELECTIVE CHANNEL (VDAC),” J. Biol. Chem. 281(25):17347-17358; Stiban, J. et al. (2006) “DIHYDROCERAMIDE HINDERS CERAMIDE CHANNEL FORMATION: IMPLICATIONS ON APOPIOSIS,” Apoptosis 11(5):773-780; Stover, T. C. et al. (2005) “SYSTEMIC DELIVERY OF LIPOSOMAL SHORT-CHAIN CERAMIDE LIMITS SOLID TUMOR GROWTH IN MURINE MODELS OF BREAST ADENOCARCINOMA,” Clin. Cancer Res. 11(9):3465-3474).

| ceramide:phospholipids ratio needed to permeabilize an erythrocyte membrane relative to MOM (erythrocytes) | Compound | ceramide inserted sufficient to permeabilize the outer membrane to cytochrome c [1] | concentration exhibiting potent inhibitory effects on ceramide channels (ceramide channels) |
| --- | --- | --- | --- |
| 20 fold | ceramide | 2 pmoles per nmole of phospholip |  |
|  | OC[C@H]1O[C@H](O[C@H]2O[C@H](CO)[C@@H](O)[C@H](O)[C@H]2O)[C@H](O)[C@@H](O)[C@@H]1O [trehalose] |  | 50 mM |
